Results from ChEMBL document CHEMBL1201862, “PubChem BioAssay data set” (2004).
Active and inactive are the calls of the source.

Tests used:
[1] = molecular target: Delta-type opioid receptor (Homo sapiens, UniProt P41143); experiment: Counterscreen for agonists of heterodimerization of the mu 1 (OPRM1) and delta 1 (OPRD1) opioid receptors: Luminescence-based cell-based high throughput dose response assay to identify agonists of OPRD1 homodimerization. [Related pubchem assays (depositor defined):AID504326, AID504355, AID504692, AID504904, AID504905]; type: functional
Chain of Delta-type opioid receptor (P41143 whole entry): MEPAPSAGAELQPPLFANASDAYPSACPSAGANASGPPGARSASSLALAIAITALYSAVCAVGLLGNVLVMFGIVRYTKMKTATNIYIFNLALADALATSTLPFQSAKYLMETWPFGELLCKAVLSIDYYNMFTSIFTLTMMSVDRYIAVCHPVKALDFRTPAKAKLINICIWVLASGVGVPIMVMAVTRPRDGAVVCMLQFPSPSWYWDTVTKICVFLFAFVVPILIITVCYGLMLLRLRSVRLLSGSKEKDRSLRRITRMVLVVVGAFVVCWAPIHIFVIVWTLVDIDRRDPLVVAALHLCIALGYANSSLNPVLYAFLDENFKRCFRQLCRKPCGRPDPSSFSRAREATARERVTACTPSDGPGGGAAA

[2] = molecular target: T1, Short transient receptor potential channel 4 (Mus musculus, UniProt Q9QUQ5); experiment: mouse TRPC4 channel activators, dose response, cell-based, HEK293 TRPC4/mu-opioid, Fluo-4 calcium (AID 434937); type: functional
T1 sequence (Q9QUQ5 whole entry): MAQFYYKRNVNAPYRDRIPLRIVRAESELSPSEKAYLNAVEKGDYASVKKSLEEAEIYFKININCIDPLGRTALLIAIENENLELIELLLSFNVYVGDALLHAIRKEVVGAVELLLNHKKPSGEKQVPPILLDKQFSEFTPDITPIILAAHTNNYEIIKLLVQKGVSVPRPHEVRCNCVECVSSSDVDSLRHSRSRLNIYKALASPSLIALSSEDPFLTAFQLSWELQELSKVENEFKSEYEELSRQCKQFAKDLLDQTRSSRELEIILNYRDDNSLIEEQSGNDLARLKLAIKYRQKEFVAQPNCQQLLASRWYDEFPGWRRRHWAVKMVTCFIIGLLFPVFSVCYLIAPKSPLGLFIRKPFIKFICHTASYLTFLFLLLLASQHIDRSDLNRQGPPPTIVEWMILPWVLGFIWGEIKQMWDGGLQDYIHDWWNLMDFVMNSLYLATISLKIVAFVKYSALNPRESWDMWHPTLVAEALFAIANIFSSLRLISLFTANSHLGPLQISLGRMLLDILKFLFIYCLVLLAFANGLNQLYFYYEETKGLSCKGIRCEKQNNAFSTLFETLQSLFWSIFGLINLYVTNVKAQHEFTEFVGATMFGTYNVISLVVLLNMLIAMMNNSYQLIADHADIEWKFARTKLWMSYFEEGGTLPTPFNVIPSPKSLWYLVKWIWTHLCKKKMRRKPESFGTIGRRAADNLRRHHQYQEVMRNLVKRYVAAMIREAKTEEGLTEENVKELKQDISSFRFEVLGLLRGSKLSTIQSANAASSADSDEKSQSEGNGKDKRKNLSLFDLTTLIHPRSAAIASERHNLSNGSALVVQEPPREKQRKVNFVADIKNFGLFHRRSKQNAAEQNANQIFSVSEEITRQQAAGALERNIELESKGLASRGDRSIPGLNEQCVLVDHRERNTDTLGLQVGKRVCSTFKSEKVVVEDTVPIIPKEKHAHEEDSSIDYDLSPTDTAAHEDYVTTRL

[3] = molecular target: 5-hydroxytryptamine receptor 5A (Homo sapiens, UniProt P47898); experiment: Counterscreen for agonists of OPRM1-OPRD1 heterodimerization: luminescence-based cell-based high throughput dose response assay to identify agonists of 5-hydroxytryptamine (serotonin) 5A receptor (HTR5A). [Related pubchem assays (depositor defined):AID504326, AID504355, AID504692, AID504904, AID504905]; type: functional
Chain of 5-hydroxytryptamine receptor 5A (P47898 whole entry): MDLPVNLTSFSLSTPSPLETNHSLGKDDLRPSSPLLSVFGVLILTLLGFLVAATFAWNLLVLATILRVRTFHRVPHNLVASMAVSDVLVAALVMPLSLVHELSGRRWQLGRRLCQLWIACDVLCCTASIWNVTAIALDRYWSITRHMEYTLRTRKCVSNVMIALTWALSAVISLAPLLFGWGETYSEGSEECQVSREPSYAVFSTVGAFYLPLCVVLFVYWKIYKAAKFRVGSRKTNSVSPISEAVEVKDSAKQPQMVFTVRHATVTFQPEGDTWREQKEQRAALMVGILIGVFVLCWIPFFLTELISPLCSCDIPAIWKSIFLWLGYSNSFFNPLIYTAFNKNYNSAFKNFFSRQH

Mu-type opioid receptor = Mu-type opioid receptor (Homo sapiens, UniProt P35372); experiment: Counterscreen for agonists of heterodimerization of the mu 1 (OPRM1) and delta 1 (OPRD1) opioid receptors: Luminescence-based cell-based high throughput dose response assay to identify agonists of OPRM1 homodimerization.; type: functional;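 further: U2OS cells expressing OPRM1 and beta-arrestin as split beta-galactosidase partners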
Chain of Mu-type opioid receptor (P35372 whole entry): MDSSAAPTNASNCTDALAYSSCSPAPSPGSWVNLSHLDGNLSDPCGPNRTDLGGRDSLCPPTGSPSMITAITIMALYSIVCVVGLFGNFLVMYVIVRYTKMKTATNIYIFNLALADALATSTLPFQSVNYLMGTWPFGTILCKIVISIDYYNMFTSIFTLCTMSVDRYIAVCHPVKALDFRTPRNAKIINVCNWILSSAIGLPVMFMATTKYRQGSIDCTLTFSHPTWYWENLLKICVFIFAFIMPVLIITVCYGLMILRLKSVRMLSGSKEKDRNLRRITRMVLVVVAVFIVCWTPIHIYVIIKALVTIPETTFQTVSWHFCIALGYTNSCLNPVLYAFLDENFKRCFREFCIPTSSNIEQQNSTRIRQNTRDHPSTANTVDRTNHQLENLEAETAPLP

[4] = growth induction of Burl-1 ts yeast mutant, dose response, counter-screen for SUMOylation pathway inhibitor project, whole organism, S. cerevisiae, luminescence (AID 463199); type: functional
[5] = molecular target: T1, Short transient receptor potential channel 4; experiment: SAR Analysis for the identification of selective inhibits of the transient receptor potential cation channel C4 (TRPC4): Automated Electrophysiology. [Related pubchem assays (depositor defined):AID2256]; type: functional
[6] = molecular target: FAD-linked sulfhydryl oxidase ALR (Homo sapiens, UniProt P55789); experiment: inhibitors of human ALR sulfhydryl oxidase, dose response, biochemical, H2O2 detection, luminescence, cherry-pick (AID 493248)
Chain of FAD-linked sulfhydryl oxidase ALR (P55789 whole entry): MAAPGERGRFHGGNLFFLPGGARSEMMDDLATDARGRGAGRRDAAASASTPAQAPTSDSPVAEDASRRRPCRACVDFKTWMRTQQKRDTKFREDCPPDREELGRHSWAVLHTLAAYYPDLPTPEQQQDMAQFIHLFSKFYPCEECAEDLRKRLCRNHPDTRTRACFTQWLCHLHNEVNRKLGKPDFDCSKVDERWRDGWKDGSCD

[7] = molecular target: T1, Short transient receptor potential channel 4; experiment: mouse TRPC4 channel inhibitors, dose response, cell-based, HEK293 TRPC4/mu-opioid, Fluo-4 calcium (AID 434942); type: functional;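 further: potency of inhibitors blocking the TRPC4 calcium response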
Cytochrome P450 1A2 = molecular target: T2, Cytochrome P450 1A2 (Homo sapiens, UniProt P05177);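 further: PubChem cytochrome P450 panel assay, CYP1A2 panel member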
T2 sequence (P05177 whole entry): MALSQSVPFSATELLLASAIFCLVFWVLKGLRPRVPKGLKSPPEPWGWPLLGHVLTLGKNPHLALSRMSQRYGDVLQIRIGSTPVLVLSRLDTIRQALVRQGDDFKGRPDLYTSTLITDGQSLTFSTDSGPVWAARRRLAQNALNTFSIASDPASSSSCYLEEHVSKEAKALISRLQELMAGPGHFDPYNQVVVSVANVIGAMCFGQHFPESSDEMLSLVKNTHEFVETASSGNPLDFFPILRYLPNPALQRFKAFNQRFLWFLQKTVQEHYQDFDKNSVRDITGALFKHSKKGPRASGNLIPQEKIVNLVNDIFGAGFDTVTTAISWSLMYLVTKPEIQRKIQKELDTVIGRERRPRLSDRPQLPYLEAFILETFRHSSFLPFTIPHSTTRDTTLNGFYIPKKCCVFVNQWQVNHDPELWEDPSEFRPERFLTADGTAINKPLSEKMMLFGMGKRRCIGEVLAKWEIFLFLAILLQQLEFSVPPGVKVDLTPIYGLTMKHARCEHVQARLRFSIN

Cytochrome P450 2C9 = Cytochrome P450 2C9 (Homo sapiens, UniProt P11712)
Chain of Cytochrome P450 2C9 (P11712 whole entry): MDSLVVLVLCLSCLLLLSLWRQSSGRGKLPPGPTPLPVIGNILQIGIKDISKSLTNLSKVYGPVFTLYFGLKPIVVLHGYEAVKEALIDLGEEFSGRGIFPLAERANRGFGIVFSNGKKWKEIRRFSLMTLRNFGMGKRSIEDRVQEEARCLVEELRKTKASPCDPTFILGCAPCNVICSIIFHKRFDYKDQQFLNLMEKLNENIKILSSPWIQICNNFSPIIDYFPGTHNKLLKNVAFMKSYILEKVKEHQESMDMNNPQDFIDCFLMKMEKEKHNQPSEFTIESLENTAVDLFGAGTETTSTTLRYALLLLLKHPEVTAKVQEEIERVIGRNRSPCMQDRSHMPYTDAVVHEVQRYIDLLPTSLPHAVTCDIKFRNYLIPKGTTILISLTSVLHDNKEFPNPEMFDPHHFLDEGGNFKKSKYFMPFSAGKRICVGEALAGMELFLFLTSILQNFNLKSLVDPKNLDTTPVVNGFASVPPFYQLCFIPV

HEK293 = experiment: cells; type: functional, cell-based; settings: Homo sapiens
[8] = molecular target: T3, Nuclear receptor subfamily 0 group B member 1 (Homo sapiens, UniProt P51843); experiment: Luminescence-based cell-based high throughput dose response assay for inhibitors of the orphan nuclear receptor subfamily 0, group B, member 1 (DAX1; NR0B1). [Related pubchem assays (depositor defined):AID504766, AID504790]; type: functional
T3 sequence (P51843 whole entry): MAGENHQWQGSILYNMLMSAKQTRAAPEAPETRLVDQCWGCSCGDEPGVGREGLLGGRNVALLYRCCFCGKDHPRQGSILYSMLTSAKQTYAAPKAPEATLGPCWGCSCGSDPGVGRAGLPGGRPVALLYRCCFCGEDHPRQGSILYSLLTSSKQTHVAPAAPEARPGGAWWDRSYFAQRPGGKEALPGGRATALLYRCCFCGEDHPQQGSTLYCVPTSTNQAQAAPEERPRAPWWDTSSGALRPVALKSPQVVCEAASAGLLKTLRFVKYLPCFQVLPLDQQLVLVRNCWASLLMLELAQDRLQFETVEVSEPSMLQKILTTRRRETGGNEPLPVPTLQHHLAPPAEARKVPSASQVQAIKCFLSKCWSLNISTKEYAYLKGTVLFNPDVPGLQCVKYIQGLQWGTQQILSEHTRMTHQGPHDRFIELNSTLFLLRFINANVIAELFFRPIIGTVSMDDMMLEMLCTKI

A-375 = experiment: A375 melanoma cell viability reduction, dose response, counter-screen for MITF modulator project, cherry-pick samples, set 2 (AID 540335); type: functional, cell-based; settings: Homo sapiens
[9] = molecular target: T4, Microphthalmia-associated transcription factor (Homo sapiens, UniProt O75030); experiment: TRPM1 promoter luciferase signal decrease, dose response, MITF inhibitor project, cell-based, SK-MEL-5, cherry-picked, set 3 (AID 493073); type: functional
T4 sequence (O75030 whole entry): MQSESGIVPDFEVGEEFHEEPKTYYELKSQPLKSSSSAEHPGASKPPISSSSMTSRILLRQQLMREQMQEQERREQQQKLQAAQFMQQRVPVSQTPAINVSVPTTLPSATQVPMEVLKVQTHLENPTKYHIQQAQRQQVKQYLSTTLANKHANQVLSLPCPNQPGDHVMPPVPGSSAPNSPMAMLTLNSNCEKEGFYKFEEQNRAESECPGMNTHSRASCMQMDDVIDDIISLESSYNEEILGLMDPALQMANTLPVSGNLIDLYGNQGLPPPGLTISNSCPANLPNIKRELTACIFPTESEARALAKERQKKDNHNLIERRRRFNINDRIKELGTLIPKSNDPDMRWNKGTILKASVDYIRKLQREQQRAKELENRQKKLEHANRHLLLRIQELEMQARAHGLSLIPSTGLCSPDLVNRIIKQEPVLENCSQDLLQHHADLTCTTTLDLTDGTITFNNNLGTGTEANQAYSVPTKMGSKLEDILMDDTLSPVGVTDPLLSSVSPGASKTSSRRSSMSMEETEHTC

[10] = molecular target: DNA dC->dU-editing enzyme APOBEC-3A (Homo sapiens, UniProt P31941); experiment: Dose Response confirmation of small molecule APOBEC3A DNA Deaminase Inhibitors via a fluorescence-based single-stranded DNA deaminase assay. [Related pubchem assays (depositor defined):AID493011, AID493024]; type: functional
Chain of DNA dC->dU-editing enzyme APOBEC-3A (P31941 whole entry): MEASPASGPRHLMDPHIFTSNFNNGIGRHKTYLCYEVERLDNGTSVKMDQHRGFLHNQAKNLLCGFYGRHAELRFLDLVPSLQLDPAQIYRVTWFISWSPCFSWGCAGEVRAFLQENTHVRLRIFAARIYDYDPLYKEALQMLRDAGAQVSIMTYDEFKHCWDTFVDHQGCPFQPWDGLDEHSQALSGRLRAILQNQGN

[11] = molecular target: DNA dC->dU-editing enzyme APOBEC-3G (Homo sapiens, UniProt Q9HC16); type: functional;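 further: Dose-response counterscreen measuring inhibition of APOBEC3G DNA deaminase activity, run while confirming APOBEC3A inhibitors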
Chain of DNA dC->dU-editing enzyme APOBEC-3G (Q9HC16 whole entry): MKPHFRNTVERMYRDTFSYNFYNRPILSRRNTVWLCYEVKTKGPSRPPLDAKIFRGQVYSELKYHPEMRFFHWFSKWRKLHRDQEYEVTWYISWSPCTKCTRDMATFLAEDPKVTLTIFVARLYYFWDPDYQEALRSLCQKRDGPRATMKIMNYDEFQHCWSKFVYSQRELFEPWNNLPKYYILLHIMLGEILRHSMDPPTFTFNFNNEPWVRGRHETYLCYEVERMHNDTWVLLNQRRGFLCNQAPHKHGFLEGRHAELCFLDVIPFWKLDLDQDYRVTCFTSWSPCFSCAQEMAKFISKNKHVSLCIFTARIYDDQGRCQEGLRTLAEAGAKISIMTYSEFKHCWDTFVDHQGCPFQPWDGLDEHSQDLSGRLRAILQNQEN

CAAX prenyl protease 2 = CAAX prenyl protease 2 (Homo sapiens, UniProt Q9Y256); experiment: human Rce1 protease inhibitors, dose response, biochemical, yeast membranes, quenched-peptide fluorescence, cherry-pick (AID 588849)
Chain of CAAX prenyl protease 2 (Q9Y256 whole entry): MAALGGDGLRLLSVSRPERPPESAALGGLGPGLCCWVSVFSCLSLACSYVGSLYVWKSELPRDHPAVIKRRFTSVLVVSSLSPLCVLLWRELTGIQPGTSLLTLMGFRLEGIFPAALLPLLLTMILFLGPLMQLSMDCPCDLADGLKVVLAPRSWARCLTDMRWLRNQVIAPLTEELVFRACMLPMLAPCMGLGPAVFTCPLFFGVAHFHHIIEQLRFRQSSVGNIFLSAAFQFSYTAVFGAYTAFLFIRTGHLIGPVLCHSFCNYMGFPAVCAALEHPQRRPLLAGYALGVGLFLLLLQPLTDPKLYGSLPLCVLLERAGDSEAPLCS

## CC(=O)Nc1ccc(CN2CCCC(C(=O)c3cccc(C(F)(F)F)c3)C2)cc1 (configuration not stated)
[1]
  EC50: 39.4 µM (inactive)
[2]
  EC50: 1.68 µM (active)
[3]
  EC50: > 92.5 µM (inactive)
Mu-type opioid receptor
  EC50: > 92.5 µM (inactive)

## O=C1CN(C(=O)COC(=O)COc2ccc3c(c2)CCC3)c2ccccc2N1
[4]
  AC50: 48.6 µM (active)

## Cn1c(-c2ccc(F)cc2)cnc1NCc1ccc(F)cc1
[5]
  IC50: 4.28 µM (active)
[6]
  AC50: 4.7 µM (active)
[7]
  EC50: 0.749 µM (active)
Cytochrome P450 1A2
  AC50: 8.91 µM (inconclusive)
Cytochrome P450 2C9
  AC50: 20 µM (inconclusive)

## CC(C=NNc1ccc([N+](=O)[O-])cn1)=Cc1ccccc1
HEK293
  IC50: > 67.5 µM (inactive)
[8]
  IC50: > 67.5 µM (inactive)

## CCN1CCN(c2ccc(S(=O)(=O)N3CCOCC3)cc2NC(=O)/C=C/c2ccc([N+](=O)[O-])cc2)CC1
A-375
  AC50: 28.6 µM (active)
[9]
  AC50: 8.13 µM (active)
[10]
  IC50: 8.67 µM (active)
[11]
  IC50: 7.56 µM (active)

## Cc1c(CCC(=O)O)c(=O)oc2cc(OCc3cccc(F)c3)ccc12
CAAX prenyl protease 2
  AC50: 12.1 µM (active)
